# Source: ChEMBL document CHEMBL6078648, “Prioritization of Eleven-Nineteen-Leukemia Inhibitors as Orally Available Drug Candidates for Acute Myeloid Leukemia” (J Med Chem, 2024)
# Activity calls are given as the source filed them. The calls are words filed in the database; no cut-off is given here.
# Tests used:
# [1] = target: T1, Protein ENL (Homo sapiens) (UniProt Q03111); assay: Binding affinity to ENL YEATS domain (unknown origin) (1 to 148 residues) expressed in HEK293 cells assessed as […] incubated for 2 hrs by NanoBRET assay; type: cell-based; conditions: dose <= 100.0 µM
# T1 sequence (whole entry): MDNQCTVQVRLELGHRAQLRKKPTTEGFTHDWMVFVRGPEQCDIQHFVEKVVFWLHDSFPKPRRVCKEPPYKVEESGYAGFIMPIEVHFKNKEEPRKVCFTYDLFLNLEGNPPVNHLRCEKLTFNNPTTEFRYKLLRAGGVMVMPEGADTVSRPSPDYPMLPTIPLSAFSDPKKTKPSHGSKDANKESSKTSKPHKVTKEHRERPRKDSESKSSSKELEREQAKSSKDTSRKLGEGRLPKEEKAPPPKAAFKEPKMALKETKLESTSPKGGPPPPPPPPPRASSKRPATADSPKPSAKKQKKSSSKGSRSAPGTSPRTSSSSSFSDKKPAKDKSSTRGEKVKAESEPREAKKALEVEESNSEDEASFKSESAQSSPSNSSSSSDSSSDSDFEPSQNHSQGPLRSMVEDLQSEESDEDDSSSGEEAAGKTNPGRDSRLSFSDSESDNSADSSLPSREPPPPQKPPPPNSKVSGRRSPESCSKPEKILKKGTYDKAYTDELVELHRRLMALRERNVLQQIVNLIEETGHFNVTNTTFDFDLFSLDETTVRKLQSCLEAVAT
# [2] = target: T1, Protein ENL (Homo sapiens); assay: Binding affinity to ENL YEATS domain (unknown origin) expressed in HEK293 cells incubated for 2 hrs by NanoBRET assay; type: cell-based
# [3] = Cytotoxicity against human HEK293T cells assessed as cell viability incubated for 8 days by CCK-8 assay; type: toxicity, cell-based, HEK-293T; conditions: time 8 day
# MV4-11 [4] = assay: Cytotoxicity against human MV4-11 cells assessed as cell viability incubated for 8 days by CCK-8 assay; type: functional; conditions: for CC50: MV4-11, 192 h, time 8 day; for Activity: time 8.0 day
# Jurkat [5] = assay: Antiproliferative activity against human Jurkat cells assessed as reduction in cell proliferation at 1 uM measured upto 2 weeks; type: functional, cell-based
# MOLM-13 [6] = assay: Cytotoxicity against human MOLM-13 cells assessed as cell viability incubated for 8 days by CCK-8 assay; type: functional; conditions: for CC50: MOLM-13, 192 h, time 8 day; for Activity: time 8.0 day
# Jurkat [7] = assay: Cytotoxicity against human Jurkat cells assessed as cell viability incubated for 8 days by CCK-8 assay; type: functional; conditions: 192 h, time 8 day
# [8] = Metabolic stability in human plasma assessed as parent compound remaining measured after 1 hrs by HPLC-MS/MS analysis; type: ADME, cell-free
# MOLM-13 [9] = assay: Cytotoxicity against human MOLM-13 cells assessed as cell viability upto 100 uM incubated for 72 hrs by CCK-8 assay; type: functional, cell-based
# MV4-11 [10] = assay: Cytotoxicity against human MV4-11 cells assessed as cell viability upto 100 uM incubated for 72 hrs by CCK-8 assay; type: functional, cell-based
# Jurkat [11] = assay: Cytotoxicity against human Jurkat cells assessed as reduction in cell viability at 10 uM incubated for 8 days by CCK-8 assay; type: functional, cell-based; conditions: time 8.0 day
# MV4-11 [12] = assay: Downregulation of MYB expression in human MV4-11 cells at 1 uM measured for 72 hrs by qRT-PCR analysis; type: functional, cell-based
# [13] = target: T1, Protein ENL (Homo sapiens); assay: Binding affinity to ENL in human MOLM-13 cells assessed as increase in protein thermal stabilization at 10 uM incubated for 3 to 6 hrs by CETSA analysis; type: cell-based; conditions: time 3-6 hrs
# [14] = Toxicity in NSG mouse implanted with human MOLM-13 assessed as body weight loss at 200 mg/kg, po qd measured every 2 to 3 days; type: organism-based; conditions: in vivo, time 2-3 day
# MV4-11 [15] = assay: Downregulation of MYC expression in human MV4-11 cells at 1 uM measured for 72 hrs by qRT-PCR analysis; type: functional, cell-based
# MOLM-13 [16] = assay: Antitumor activity against human MOLM-13 cells xenografted in NSG mouse assessed as reduction in tumor burden at 400 mg/kg, po qd measured after 13 days; type: functional, organism-based; conditions: time 13.0 day
# MV4-11 [17] = assay: Downregulation of MEISI expression in human MV4-11 cells at 1 uM measured for 72 hrs by qRT-PCR analysis; type: functional, cell-based
# [18] = Toxicity in NSG mouse implanted with human MOLM-13 assessed as animal survival at 400 mg/kg, po qd measured every 2 to 3 days and measured at day 15; type: organism-based; conditions: in vivo, 360 h, time 15 day
# Jurkat [19] = assay: Cytotoxicity against human Jurkat cells assessed as cell viability incubated for 72 hrs by CCK-8 assay; type: functional
# MOLM-13 [20] = assay: Antitumor activity against human MOLM-13 cells xenografted in NSG mouse assessed as reduction in tumor growth at 200 mg/kg, po qd measured after 13 days; type: functional, organism-based; conditions: time 13.0 day
# [21] = Toxicity in NSG mouse implanted with human MOLM-13 assessed as tolerability at 200 mg/kg, po qd measured every 2 to 3 days; type: organism-based; conditions: in vivo, time 2-3 day
# MV4-11 [22] = assay: Downregulation of HOXA10 expression in human MV4-11 cells at 1 uM measured for 72 hrs by qRT-PCR analysis; type: functional, cell-based
# MOLM-13 [23] = assay: Downregulation of MEISI expression in human MOLM-13 cells at 1 uM measured for 72 hrs by qRT-PCR analysis; type: functional, cell-based
# MOLM-13 [24] = assay: Downregulation of MYB expression in human MOLM-13 cells at 1 uM measured for 72 hrs by qRT-PCR analysis; type: functional, cell-based
# MOLM-13 [25] = assay: Downregulation of HOXA9 expression in human MOLM-13 cells at 1 uM measured for 72 hrs by qRT-PCR analysis; type: functional, cell-based
# MV4-11 [26] = assay: Induction of cell cycle arrest in human MV4-11 cells assessed as increase in accumulation of cells at G1 phase at 1 to 10 uM incubated for 72 hrs by PI staining based flow cytometric analysis; type: functional; conditions: dose 1-10 µM
# HEK-293T [27] = assay: Cytotoxicity against HEK293T cells assessed as reduction in cell viability at 10 uM incubated for 8 days by CCK-8 assay; type: toxicity, cell-based; conditions: human, 192 h, time 8 day
# [28] = Half life in CD-1 mouse at 20 mg/kg, iv measured upto 24 hrs by HPLC-MS/MS analysis; type: ADME, organism-based; conditions: in vivo
# [29] = target: T1, Protein ENL (Homo sapiens); assay: Binding affinity to ENL in human MV4-11 cells assessed as increase in protein thermal stabilization at 10 uM incubated for 3 to 6 hrs by CETSA analysis; type: cell-based; conditions: time 3-6 hrs
# MOLM-13 [30] = assay: Downregulation of HOXA10 expression in human MOLM-13 cells at 1 uM measured for 72 hrs by qRT-PCR analysis; type: functional, cell-based
# Jurkat [31] = assay: Cytotoxicity against human Jurkat cells assessed as reduction in cell viability at 16 uM incubated for 8 days by CCK-8 assay; type: functional, cell-based; conditions: time 8.0 day
# [32] = Toxicity in NSG mouse implanted with human MOLM-13 assessed as body weight loss at 400 mg/kg, po qd measured every 2 to 3 days and measured at day 15; type: organism-based; conditions: in vivo, 360 h, time 15 day
# HEK-293T [33] = assay: Cytotoxicity against HEK293T cells assessed as reduction in cell viability at 16 uM incubated for 8 days by CCK-8 assay; type: toxicity, cell-based; conditions: human, 192 h, time 8 day
# MV4-11 [34] = assay: Downregulation of HOXA9 expression in human MV4-11 cells at 1 uM measured for 72 hrs by qRT-PCR analysis; type: functional, cell-based
# MOLM-13 [35] = assay: Downregulation of MYC expression in human MOLM-13 cells at 1 uM measured for 72 hrs by qRT-PCR analysis; type: functional, cell-based
# MOLM-13 [36] = assay: Induction of cell cycle arrest in human MOLM-13 cells assessed as increase in accumulation of cells at G1 phase at 1 to 10 uM incubated for 72 hrs by PI staining based flow cytometric analysis; type: functional; conditions: dose 1-10 µM
# [37] = Metabolic stability in human plasma assessed as parent compound remaining measured after 2 hrs by HPLC-MS/MS analysis; type: ADME, cell-free
# MOLM-13 [38] = assay: Antitumor activity against human MOLM-13 cells xenografted in NSG mouse at 400 mg/kg, po qd measured from 10 to 15 days; type: functional, organism-based; conditions: time 10-15 day
# [39] = Toxicity in NSG mouse implanted with human MOLM-13 assessed as body weight loss at 200 mg/kg, po qd; type: organism-based; conditions: in vivo
# [40] = Toxicity in NSG mouse implanted with human MOLM-13 assessed as tolerability at 200 mg/kg, po qd; type: organism-based; conditions: in vivo
# [41] = target: T1, Protein ENL (Homo sapiens); assay: Inhibition of ENL YEATS domain (unknown origin) (1 to 148 residues) preincubated with compound for 1 hr followed by alpha-bead addition and measured after 30 mins under dark condition by Alphascreen assay; conditions: time 90.0 min
# [42] = Metabolic stability in mouse liver microsome assessed as half life; type: ADME; conditions: liver microsomes
compound,measurement,setting,value
O=C(CCC1=[N+]2C(=Cc3ccc(-c4ccc[nH]4)n3[B-]2(F)F)C=C1)NCCCC(=O)Nc1cccc(-c2cn3cc(C(=O)NC4CCC4)ccc3n2)c1,Activity,[1],Dose-dependent-effect
O=C(CCC1=[N+]2C(=Cc3ccc(-c4ccc[nH]4)n3[B-]2(F)F)C=C1)NCCCCSc1ccc(CNC(=O)c2ccc3nncn3c2)cc1,Activity,[2],Active
CC(C)C1CCN1Cc1cc2cnc(NC(=O)c3ccc4nncn4c3)cc2[nH]1 (stereo unspecified),CC50 at 192 h,[3],> 64 µM
same,CC50,MV4-11 [4],< 4 µM
same,Activity,Jurkat [5],inactive
same,CC50,MOLM-13 [6],< 4 µM
same,CC50,Jurkat [7],> 64 µM
O=C(Nc1cc2[nH]c(CN3CCC3C3CC3)cc2cn1)c1ccc2nncn2c1 (stereo unspecified),CC50 at 192 h,[3],> 64 µM
same,Activity,Jurkat [5],inactive
same,Stability,[8],> 60%
CC1CCN1Cc1ccc(CNC(=O)c2ccc3nncn3c2)cc1 (stereo unspecified),Activity,MOLM-13 [9],Active
same,Activity,MV4-11 [4],inactive
same,Activity,MOLM-13 [6],inactive
same,Activity,MV4-11 [10],Active
CC(C)C1CCN1Cc1ccc(CNC(=O)c2ccc3nncn3c2)cc1 (stereo unspecified),Activity,MOLM-13 [9],Active
same,Activity,Jurkat [11],Active
same,Activity,MV4-11 [12],Active
same,Activity,[13],Active
same,Activity,[14],Non-toxic
same,Activity,MV4-11 [15],Active
same,Activity,MOLM-13 [16],Active
same,Activity,MV4-11 [17],Active
same,Activity,[18],Non-toxic
same,CC50,Jurkat [19],> 64 µM
same,Activity,MOLM-13 [20],inactive
same,Activity,[21],Non-toxic
same,Activity,Jurkat [5],inactive
same,Activity,MV4-11 [22],Active
same,Activity,MOLM-13 [23],Active
same,Activity,MOLM-13 [24],Active
same,Activity,MV4-11 [10],Active
same,Stability,[8],> 60%
same,Activity,MOLM-13 [25],Active
same,Activity,MV4-11 [26],Active
same,Activity,HEK-293T [27],Non-toxic
same,half-life,[28],1.85 h
same,Activity,[29],Active
same,Activity,MOLM-13 [30],Active
same,Activity,Jurkat [31],Active
same,Activity,[32],Non-toxic
same,Activity,HEK-293T [33],Non-toxic
same,Activity,MV4-11 [34],Active
same,Activity,MOLM-13 [35],Active
same,Activity,MOLM-13 [36],Active
same,Stability,[37],95.58%
O=C(NCc1ccc(CNc2ncc(F)cn2)cc1)c1ccc2nncn2c1,Activity,MOLM-13 [9],Active
same,Activity,MV4-11 [4],inactive
same,Activity,MOLM-13 [6],inactive
same,Activity,MV4-11 [10],Active
C[C@H]1CCCN1Cc1cc2cnc(NC(=O)c3ccc4nncn4c3)cc2[nH]1,CC50 at 192 h,[3],> 64 µM
same,Activity,Jurkat [5],inactive
same,Stability,[8],> 60%
CC(C)[C@H]1CCN1Cc1cc2cnc(NC(=O)c3ccc4nncn4c3)cc2[nH]1,CC50 at 192 h,[3],> 64 µM
same,Activity,MOLM-13 [38],Active
same,Activity,MV4-11 [12],Active
same,Activity,[13],Active
same,Activity,[14],Non-toxic
same,Activity,MV4-11 [15],Active
same,Activity,MV4-11 [17],Active
same,Activity,[39],Non-toxic
same,CC50,MV4-11 [4],0.81 µM
same,Activity,[21],Non-toxic
same,Activity,Jurkat [5],inactive
same,Activity,MV4-11 [22],Active
same,Activity,MOLM-13 [23],Active
same,Activity,MOLM-13 [24],Active
same,CC50,MOLM-13 [6],1.25 µM
same,Activity,MOLM-13 [25],Active
same,Activity,MV4-11 [26],Active
same,Activity,[29],Active
same,Activity,MOLM-13 [30],Active
same,CC50,Jurkat [7],> 64 µM
same,Activity,[40],Non-toxic
same,Activity,MV4-11 [34],Active
same,Activity,MOLM-13 [35],Active
same,Activity,MOLM-13 [36],Active
same,Stability,[37],94.54%
O=C(NCc1cccc(CN2CCC2)c1)c1ccc2nncn2c1,Activity,MOLM-13 [9],Active
same,Activity,MV4-11 [4],inactive
same,Activity,MOLM-13 [6],inactive
same,Activity,MV4-11 [10],Active
same,Stability,[8],> 60%
same,Stability,[37],94.94%
O=C(NCc1ccc(CN2CCOCC2)cc1)c1ccc2nncn2c1,inhibition,[41],Active
CSc1ccc(CNC(=O)c2ccc3nncn3c2)cc1,Activity,MOLM-13 [9],Active
same,Activity,MV4-11 [4],inactive
same,Activity,MOLM-13 [6],inactive
same,Activity,MV4-11 [10],Active
O=C(NCc1ccc(CN2CCC2)cc1)c1ccc2nncn2c1,inhibition,[41],Active
O=C(NC1CCC1)c1ccc2nc(-c3cccc(NS(=O)(=O)NCCN4CCCCC4)c3)cn2c1,half-life,[42],9.3 min
O=C(NCc1ccc(CN2CCCCC2)cc1)c1ccc2nncn2c1,inhibition,[41],Active
